CNC(=O)NC
solubility (mole fraction)
Conditions	288.15 K	293.15 K	298.15 K	303.15 K	308.15 K	313.15 K	318.15 K	323.15 K	328.15 K
in acetone	0.129	0.152	0.177	0.202	0.228	0.261	0.301	0.339	0.376
in acetonitrile	0.102	0.128	0.151	0.186	0.216	0.25	0.282	0.322	0.363
in ethyl acetate	0.0302	0.0421	0.0608	0.0825	0.111	0.14	0.175	0.22	0.271
in isopropanol	0.331	0.352	0.372	0.39	0.416	0.438	0.471	0.5	0.533
in n-butyl acetate	0.0137	0.0205	0.0296	0.0408	0.0602	0.0834	0.111	0.148	0.195
in sec-butanol	0.325	0.353	0.381	0.412	0.438	0.46	0.494	0.523	0.561
in water	0.362	0.38	0.405	0.436	0.464	0.494	0.533	0.57	0.601

Source: BigSolDB 2.1
